Data published in ChEMBL document CHEMBL1141021, “Anthranilimide-based glycogen phosphorylase inhibitors for the treatment of Type 2 diabetes: 2. Optimization of serine and threonine ether amino acid residues” (Bioorg Med Chem Lett, 2009).

Legend:
Type in all cases: ADME, organism-based
[1] = Clearance in Sprague-Dawley rat at 10 mg/kg, po or […], iv; details: in vivo
[2] = system: Rattus norvegicus; assay: Dose normalized AUC (0 to infinity) in Sprague-Dawley rat at 1 mg/kg, po; set-up: dose 1 mg/kg, route oral, time infinity; details: in vivo
[3] = Volume of distribution at steady state in Sprague-Dawley rat at 10 mg/kg, po or […], iv; details: in vivo, read-out: Vdss
[4] = Half life in Sprague-Dawley rat at 10 mg/kg, po or […], iv; details: in vivo
[5] = Oral bioavailability in Sprague-Dawley rat at 10 mg/kg; details: in vivo

Cc1cc(C)c(NC(=O)Nc2cc3ccccc3cc2C(=O)N[C@@H](COC(C)(C)C)C(=O)O)c(C)c1
clearance [1]: 26 mL/min/kg | AUC [2]: 256 ng·h/mL | Vd [3]: 1.9 L/kg | half-life [4]: 4 h | bioavailability [5]: 17%

CCCC[C@H](NC(=O)c1cc2ccccc2cc1NC(=O)Nc1c(C)cc(C)cc1C)C(=O)O
clearance [1]: 4 mL/min/kg | AUC [2]: 320 ng·h/mL | Vd [3]: 0.6 L/kg | half-life [4]: 2.8 h | bioavailability [5]: 8%

Cc1cc(C)c(NC(=O)Nc2cc3ccccc3cc2C(=O)N[C@H](C(=O)O)[C@@H](C)OC(C)(C)C)c(C)c1
clearance [1]: 13 mL/min/kg | AUC [2]: 514 ng·h/mL | Vd [3]: 0.5 L/kg | half-life [4]: 3 h | bioavailability [5]: 40%
